Measured values reported in patent US20250144126A1, “APPLICATION OF 5'-MONOPHOSPHATE NUCLEOTIDE AND MIXTURE THEREOF IN PREPARATION OF DRUG OR FOOD FOR IMPROVING MITOCHONDRIAL FUNCTION” (priority 2021, published 2025).
Entries after “also recorded” stand apart in the source; their conditions may differ.

Test system: H2O2-induced senescent mouse embryonic fibroblasts NIH/3T3
Experiment: Seahorse xFe96 mitochondria stress detection experiment in H2O2-induced senescent cells
Type: cell-based
Details: 24 h incubation after 200 μmol/L H2O2 for 4 h; for mitochondrial basal respiration / mitochondrial oxygen consumption rate (OCR): vs blank and model control; for mitochondrial ATP production capability / mitochondrial maximum respiratory value / mitochondrial respiratory reserve: vs model control, P<0.05
Experimental: In this example, concentrations of the 5′-adenosine monophosphate and the 5′-disodium uridine obtained in Example 1 were 100 μmol/L and 200 μmol/L respectively, and were recorded as AMP 100 group and UMP 200 group, respectively. […] Model control group was a senescence cell model group intervened by hydrogen peroxide. Blank control group was a group free of mixture of 5′-adenosine monophosphate, 5′-disodium uridine and 5′-monophosphate nucleotide and without hydrogen peroxide intervention.
The cells used in the example were mouse embryonic fibroblasts NIH/3T3, which were purchased from Cell Bank of Chinese Academy of Sciences.
The cells were cultured in a DMEM high-sugar medium containing 1% penicillin/streptomycin and 10% fetal bovine serum in an incubator with 5% of CO2 at 37° C. under saturated humidity conditions. The establishment of the senescence cell model was as follows: After the cells grew to the wall of a culture vessel, different concentrations of hydrogen peroxide were used for intervention, where the concentrations of hydrogen peroxide were 50 μmol/L, 100 μmol/L, 200 μmol/L, 400 μmol/L, and 800 μmol/L. The medium containing hydrogen peroxide was removed after incubation for 4 hours, and a normal complete medium (DMEM high-sugar medium containing 1% penicillin/streptomycin and 10% fetal bovine serum) was added for incubation for 24 hours, then the cell activity of the cultured cells was detected by using a CCK-8 cell active kit, the expression of β-galactosidase was detected, and the expressions of the senescent marker p16INK4A and p21Waf1/Cipl were detected by western blot method.
In this example, the oxygen consumption rate (OCR), basal respiration, maximum respiratory value, ATP production capability and respiratory reserve of mitochondria were determined by using the Seahorse xFe96 (Agilent) mitochondria stress detection experiment. 20000 NIH/3T3 cells were inoculated in each well of a 96-well cell culture plate (Nunc, 165306) except the background wells at four corners. After overnight incubation and the cells grew to the wall of the culture plate, the cells were intervened by 200 μmol/L hydrogen peroxide for 4 hours, then the medium containing hydrogen peroxide was removed, and a normal complete medium containing nucleotides with different concentrations (DMEM high-sugar medium containing 1% of penicillin/streptomycin and 10% of fetal bovine serum, and the concentrations of 5′-adenosine monophosphate and 5′-disodium uridine were respectively 100 μmol/L and 200 μmol/L, and the concentration of the nucleotide mixture was 200 μmol/L) was added for incubation for 24 hours. A probe panel (xFe96 FluxPak, Agilent, 102353-100) was hydrated with a hydration solution (XF Calibrant Solution, Agilent, 100840-000) one day in advance, and then was placed in a non-CO2 incubator for incubation for at least 12 hours at 37° C. The experimental culture solution was prepared on the day of the experiment, 1 mL of 2.5 mM glucose (Glucose, Sigma, G7528), 1 mL of 2 mM glutamine (L-glutamine, Sigma, G8540), and 1 mL of 1 mM sodium pyruvate (Sodium pyruvate, Sigma, S8636) were added to 100 mL of base medium (Seahorse XF Basemedium, Agilent, 102353-100), and the pH of the culture solution was adjusted to 7.4±0.05 with 1N of NaOH. The culture solution of the cell culture plate was replaced with the experimental culture solution, 40 μL/well of the original medium was removed from the cell culture plate, then 160 μL/well of the experimental culture solution was added into the cell culture plate for dilution, and then 160 μL of the mixed culture solution was sucked out; the process was repeated for 2-3 times, finally the volume of the experimental culture solution in each well was 175 μL, and the cell culture plate was stood for 1 hour at 37° C.

Row | SMILES | mitochondrial basal respiration (100 μmol/L) | mitochondrial oxygen consumption rate (OCR) (100 μmol/L) | mitochondrial ATP production capability (100 μmol/L) | mitochondrial maximum respiratory value (100 μmol/L) | mitochondrial respiratory reserve (100 μmol/L) | mitochondrial basal respiration (200 μmol/L) | mitochondrial ATP production capability (200 μmol/L) | mitochondrial maximum respiratory value (200 μmol/L) | mitochondrial respiratory reserve (200 μmol/L) | mitochondrial oxygen consumption rate (OCR) (200 μmol/L)
1 | Nc1ncnc2c1ncn2[C@@H]1O[C@H](COP(=O)(O)O)[C@@H](O)[C@H]1O [AMP, 5′-adenosine monophosphate] | returned to normal level | returned to normal level | significantly increased | significantly increased | significantly increased | – | – | – | – | –
2 | Nc1ccn([C@@H]2O[C@H](COP(=O)(O)O)[C@@H](O)[C@H]2O)c(=O)n1 [CMP, 5′-cytidine monophosphate] | – | – | – | – | – | increased and significantly lower than that in the nucleotide mixture group; also recorded: little effect | increased (P<0.05) but significantly lower than that in the nucleotide mixture group; also recorded: little effect | increased (P<0.05) but significantly lower than that in the nucleotide mixture group; also recorded: little effect | – | –
3 | Nc1nc2c(ncn2[C@@H]2O[C@H](COP(=O)([O-])[O-])[C@@H](O)[C@H]2O)c(=O)[nH]1.[Na+].[Na+] [GMP, 5′-disodium guanylate] | – | – | – | – | – | – | increased (P<0.05) but significantly lower than that in the nucleotide mixture group; also recorded: little effect | increased (P<0.05) but significantly lower than that in the nucleotide mixture group; also recorded: little effect | increased (P<0.05) but significantly lower than that in the nucleotide mixture group; also recorded: little effect | –
4 | O=c1ccn([C@@H]2O[C@H](COP(=O)([O-])[O-])[C@@H](O)[C@H]2O)c(=O)[nH]1.[Na+].[Na+] [UMP, 5′-disodium uridine] | – | – | – | – | – | significantly higher than that of the model control group; also recorded: returned to normal level | significantly increased | significantly increased | significantly increased | returned to normal level
